Experimental data published in ChEMBL document CHEMBL1697692, “Developing structure-activity relationships for the prediction of hepatotoxicity” (Chem Res Toxicol, 2010).
Where a name gives a salt, the structure may show the parent alone. Numbered stars: 1 amine (or outer) side, 2 acyl side, 3 side chain; on linkers, the order of the positions; unused ones are H or OH. Bridge positions count the residues as written; N and C are the ends. Square brackets hold non-standard residues; d marks the D form. Peptide text beside a SMILES is read from it. * marks the point of attachment. Adda = CO[C@@H](Cc1ccccc1)[C@@H](C)/C=C(C)/C=C/[C@H](N[*:1])[C@H](C)C(=O)[*:2]; Ileψ(thiazoline)Cys = CC[C@H](C)[C@H](N)C1=N[C@H](C(=O)*)CS1; dAsp(3S-Me) = C[C@H](C(=O)[*:3])[C@@H](N[*:1])C(=O)[*:2]; d(γGlu) = O=C(O)[C@@H](CCC(=O)[*:2])N[*:1]; dOrn = NCCC[C@@H](N)C(=O)O; NMeDha = C=C(NC)C(=O)O

Test system: Hepatotoxicity
Assay: Literature-mined public compounds from Greene et al multi-species hepatotoxicity modelling dataset

Molecule | Hepatotoxicity
C=C1C(=O)N[C@H](C)C(=O)N[C@@H](CC(C)C)C(=O)N[C@@H](C(=O)O)[C@H](C)C(=O)N[C@@H](CCCNC(=N)N)C(=O)N[C@@H](/C=C/C(C)=C/[C@H](C)[C@H](Cc2ccccc2)OC)[C@H](C)C(=O)N[C@@H](C(=O)O)CCC(=O)N1C [MICROCYSTIN-LR] (R[Adda][d(γGlu)][NMeDha][dA]L[dAsp(3S-Me)]-OH; lactam N-7) | AH: Evidence for animal hepatotoxicity but not tested in humans
Cn1nnnc1SCC1=C(C(=O)[O-])N2C(=O)[C@@H](NC(=O)[C@H](O)c3ccccc3)[C@H]2SC1.[Na+] [CEFAMANDOLE SODIUM] | HH: Evidence of human hepatotoxicity
NC(N)=Nc1nc(CSCCC(N)=NS(N)(=O)=O)cs1 [FAMOTIDINE] | WE: Weak evidence (<10 case reports) of human hepatotoxicity
CC(C)Cc1ccc(C(C)C(=O)O)cc1 (configuration not stated) [IBUPROFEN] | WE: Weak evidence (<10 case reports) of human hepatotoxicity
O=C1O[C@H]([C@@H](O)CO)C(O)=C1O [ASCORBIC ACID] | NE: No evidence of hepatotoxicity in any species
Cc1ccccc1N1C(=O)c2cc(S(N)(=O)=O)c(Cl)cc2NC1C (configuration not stated) [METOLAZONE] | HH: Evidence of human hepatotoxicity
O=C1OCCN1/N=C/c1ccc([N+](=O)[O-])o1 [FURAZOLIDONE] | HH: Evidence of human hepatotoxicity
O=C1NC(=O)C(O)(O)C(=O)N1 | NE: No evidence of hepatotoxicity in any species
CN[C@@H](C)[C@@H](O)c1ccccc1.Cl [PSEUDOEPHEDRINE HYDROCHLORIDE] | NE: No evidence of hepatotoxicity in any species
CC(=O)[C@H]1[C@H](C#N)C[C@H]2[C@@H]3CC=C4C[C@@H](O)CC[C@]4(C)[C@H]3CC[C@@]21C [PREGNENOLONE CARBONITRILE] | AH: Evidence for animal hepatotoxicity but not tested in humans
CNNCc1ccc(C(=O)NC(C)C)cc1.Cl [PROCARBAZINE HYDROCHLORIDE] | HH: Evidence of human hepatotoxicity
CC(=O)CC(c1ccccc1)c1c(O)c2ccccc2oc1=O (configuration not stated) [WARFARIN] | WE: Weak evidence (<10 case reports) of human hepatotoxicity
CC(=O)Nc1nnc(S(N)(=O)=O)s1 [ACETAZOLAMIDE] | HH: Evidence of human hepatotoxicity
CN1CCN2c3ccccc3Cc3ccccc3C2C1 (configuration not stated) [MIANSERIN] | HH: Evidence of human hepatotoxicity
CNCCC=C1c2ccccc2CCc2ccccc21.Cl [NORTRIPTYLINE HYDROCHLORIDE] | HH: Evidence of human hepatotoxicity
COCC(=O)O [METHOXYACETIC ACID] | AH: Evidence for animal hepatotoxicity but not tested in humans
COC1=CC(=O)C[C@@H](C)[C@]12Oc1c(Cl)c(OC)cc(OC)c1C2=O [GRISEOFULVIN] | HH: Evidence of human hepatotoxicity
O=[N+]([O-])c1ccc(O)c([N+](=O)[O-])c1 [2,4-DINITROPHENOL] | AH: Evidence for animal hepatotoxicity but not tested in humans
CC[C@H](C)[C@H](N)C1=N[C@H](C(=O)N[C@@H](CC(C)C)C(=O)N[C@H](CCC(=O)O)C(=O)N[C@H](C(=O)N[C@H]2CCCCNC(=O)[C@H](CC(N)=O)NC(=O)[C@@H](CC(=O)O)NC(=O)[C@H](Cc3cnc[nH]3)NC(=O)[C@@H](Cc3ccccc3)NC(=O)[C@H]([C@@H](C)CC)NC(=O)[C@@H](CCCN)NC2=O)[C@@H](C)CC)CS1 [BACITRACIN] ({Ileψ(thiazoline)Cys}-L[dE]IK[dOrn]I[dF]H[dD]N; lactam 4-C) | NE: No evidence of hepatotoxicity in any species

Molecule | Hepatotoxicity
CC[N+](CC)(CC)CCOc1cccc(OCC[N+](CC)(CC)CC)c1OCC[N+](CC)(CC)CC.[I-].[I-].[I-] [GALLAMINE TRIETHIODIDE] | NE: No evidence of hepatotoxicity in any species
NC(=O)c1ncn([C@@H]2O[C@H](CO)[C@@H](O)[C@H]2O)n1 [RIBAVIRIN] | WE: Weak evidence (<10 case reports) of human hepatotoxicity
O=c1[nH]cc(F)c(=O)[nH]1 [FLUOROURACIL] | HH: Evidence of human hepatotoxicity
CO[C@@]1(NC(=O)C2SC(=C(C(N)=O)C(=O)O)S2)C(=O)N2C(C(=O)O)=C(CSc3nnnn3C)CS[C@@H]21 (some centres not stated) [CEFOTETAN] | NE: No evidence of hepatotoxicity in any species
Cc1ccc(-c2nc3ccc(C)cn3c2CC(=O)N(C)C)cc1 [ZOLPIDEM] | WE: Weak evidence (<10 case reports) of human hepatotoxicity
COc1cc2c(cc1OC)C(=O)C(CC1CCN(Cc3ccccc3)CC1)C2 (configuration not stated) [DONEPEZIL] | WE: Weak evidence (<10 case reports) of human hepatotoxicity
C[C@H](C(=O)O)c1ccc2oc(-c3ccc(F)cc3)nc2c1 [FLUNOXAPROFEN] | WE: Weak evidence (<10 case reports) of human hepatotoxicity
Cc1ccc2cc3c(ccc4ccccc43)c3c2c1CC3 [3-METHYLCHOLANTHRENE] | HH: Evidence of human hepatotoxicity
CC(=O)CC(c1ccc([N+](=O)[O-])cc1)c1c(O)c2ccccc2oc1=O (configuration not stated) [ACENOCOUMAROL] | HH: Evidence of human hepatotoxicity
CCO[C@@H](Cc1ccc(OCCN2c3ccccc3Oc3ccccc32)cc1)C(=O)O [RAGAGLITAZAR] | NE: No evidence of hepatotoxicity in any species
Nc1ncnc2c1ncn2[C@@H]1O[C@H](CO)[C@@H](O)[C@@H]1O [VIDARABINE] | NE: No evidence of hepatotoxicity in any species
CC(C)(O)c1ccccc1CC[C@@H](SCC1(CC(=O)O)CC1)c1cccc(/C=C/c2ccc3ccc(Cl)cc3n2)c1 [MONTELUKAST] | WE: Weak evidence (<10 case reports) of human hepatotoxicity
N[C@@H](Cc1cc(I)c(Oc2ccc(O)c(I)c2)c(I)c1)C(=O)O [LIOTHYRONINE] | NE: No evidence of hepatotoxicity in any species
NN [HYDRAZINE] | AH: Evidence for animal hepatotoxicity but not tested in humans
CO[C@@]1(NC(=O)C(C(=O)[O-])c2ccc(O)cc2)C(=O)N2C(C(=O)[O-])=C(CSc3nnnn3C)CO[C@@H]21.[Na+].[Na+] (some centres not stated) [MOXALACTAM DISODIUM] | NE: No evidence of hepatotoxicity in any species
CCCCCCCCCCCCCCCC(=O)OC[C@@H](NC(=O)C(Cl)Cl)[C@H](O)c1ccc([N+](=O)[O-])cc1 [CHLORAMPHENICOL PALMITATE] | HH: Evidence of human hepatotoxicity
CO[C@H]1/C=C/O[C@@]2(C)Oc3c(C)c(O)c4c(O)c(c(/C=N/N5CCN(C)CC5)c(O)c4c3C2=O)NC(=O)/C(C)=C\C=C\[C@H](C)[C@H](O)[C@@H](C)[C@@H](O)[C@@H](C)[C@H](OC(C)=O)[C@@H]1C [RIFAMPIN] | WE: Weak evidence (<10 case reports) of human hepatotoxicity
CN(C)CCn1nnnc1SCC1=C(C(=O)O)N2C(=O)[C@@H](NC(=O)Cc3csc(N)n3)[C@H]2SC1.Cl.Cl [CEFOTIAM HYDROCHLORIDE] | HH: Evidence of human hepatotoxicity
CN(C)CCC(c1ccc(Br)cc1)c1ccccn1.O=C(O)/C=C\C(=O)O (configuration not stated) [BROMPHENIRAMINE MALEATE] | NE: No evidence of hepatotoxicity in any species

Molecule | Hepatotoxicity
CC[C@H]1OC(=O)[C@H](C)C(=O)[C@H](C)[C@@H](O[C@@H]2O[C@H](C)C[C@H](N(C)C)[C@H]2O)[C@](C)(OC)C[C@@H](C)C(=O)[C@H](C)[C@H]2N(CCCCn3cnc(-c4cccnc4)c3)C(=O)O[C@]12C [TELITHROMYCIN] | HH: Evidence of human hepatotoxicity
DICHROMATE | AH: Evidence for animal hepatotoxicity but not tested in humans
C[C@H](N)Cc1ccccc1.C[C@H](N)Cc1ccccc1.O=S(=O)(O)O [DEXTROAMPHETAMINE SULFATE] | HH: Evidence of human hepatotoxicity
CC[C@H]1OC(=O)[C@H](C)[C@@H](O[C@H]2C[C@@](C)(OC)[C@@H](O)[C@H](C)O2)[C@H](C)[C@@H](O[C@@H]2O[C@H](C)C[C@H](N(C)C)[C@H]2O)[C@](C)(O)C[C@@H](C)C(=O)[C@H](C)[C@@H](O)[C@]1(C)O [ERYTHROMYCIN] | WE: Weak evidence (<10 case reports) of human hepatotoxicity
NCCC(O)(P(=O)(O)O)P(=O)(O)O [PAMIDRONIC ACID] | NE: No evidence of hepatotoxicity in any species
CC(N/C(=N\C#N)Nc1ccncc1)C(C)(C)C (configuration not stated) [PINACIDIL ANHYDROUS] | NE: No evidence of hepatotoxicity in any species
CN(C)CCCN1c2ccccc2Sc2ccc(Cl)cc21 [CHLORPROMAZINE] | HH: Evidence of human hepatotoxicity
CN(C)CCN(Cc1ccccc1)c1ccccn1.Cl [TRIPELENNAMINE HYDROCHLORIDE] | HH: Evidence of human hepatotoxicity
ClC(Cl)(Cl)Cl [CARBON TETRACHLORIDE] | HH: Evidence of human hepatotoxicity
COc1cc([C@@H]2c3cc4c(cc3[C@@H](O[C@@H]3O[C@@H]5CO[C@@H](C)O[C@H]5[C@H](O)[C@H]3O)[C@H]3COC(=O)[C@H]23)OCO4)cc(OC)c1O [ETOPOSIDE] | HH: Evidence of human hepatotoxicity
O=C(O)CCCC[C@@H]1SC[C@@H]2NC(=O)N[C@@H]21 [BIOTIN] | NE: No evidence of hepatotoxicity in any species
CCc1oc2ccccc2c1C(=O)c1cc(Br)c(O)c(Br)c1 [BENZBROMARONE] | HH: Evidence of human hepatotoxicity
COC(=O)C1=C(C)NC(C)=C(C(=O)OCC(C)C)C1c1ccccc1[N+](=O)[O-] (configuration not stated) [NISOLDIPINE] | NE: No evidence of hepatotoxicity in any species
COC(=O)C(c1ccccc1)C1CCCCN1 (configuration not stated) [METHYLPHENIDATE] | HH: Evidence of human hepatotoxicity
CN1Cc2c(N)cccc2C(c2ccccc2)C1 (configuration not stated) [NOMIFENSINE] | HH: Evidence of human hepatotoxicity
COc1ccc2[nH]cc(CCNC(C)=O)c2c1 [MELATONIN] | NE: No evidence of hepatotoxicity in any species
O=P1(N(CCCl)CCCl)NCCCO1 (configuration not stated) [CYCLOPHOSPHAMIDE ANHYDROUS] | HH: Evidence of human hepatotoxicity
CN(C)[C@@H]1C(O)=C(C(N)=O)C(=O)[C@@]2(O)C(O)=C3C(=O)c4c(O)ccc(Cl)c4[C@@](C)(O)[C@H]3C[C@@H]12.Cl [CHLORTETRACYCLINE HYDROCHLORIDE] | HH: Evidence of human hepatotoxicity
C=CCOC=O [ALLYL FORMATE] | HH: Evidence of human hepatotoxicity
